Assay results: PubChem BioAssay (NCI)
Values joined by “and” are separate entries in the source; they are usually repeats but may differ in a detail not shown here. Equal values may be shown once.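 Briefly, cells in 96-well plates were exposed to five compound concentrations for 48 h, and endpoints were estimated by linear interpolation. GI50 is the concentration that inhibits growth by half. TGI denotes the concentration required for complete inhibition of growth.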

What was measured:
Experiment in all cases: NCI tumour cell line growth inhibition, 48 h
DU-145 prostate = tested on: DU-145 prostate
SK-OV-3 ovarian = tested on: SK-OV-3 ovarian
A498 renal = tested on: A498 renal
DMS 114 small cell lung = tested on: DMS 114 small cell lung
RPMI-8226 leukemia = tested on: RPMI-8226 leukemia
SK-MEL-28 melanoma = tested on: SK-MEL-28 melanoma
SR leukemia = tested on: SR leukemia
LXFL 529 NSCLC = tested on: LXFL 529 NSCLC
HCC-2998 colon = tested on: HCC-2998 colon
OVCAR-8 ovarian = tested on: OVCAR-8 ovarian
HS 578T breast = tested on: HS 578T breast
KM20L2 colon = tested on: KM20L2 colon
UACC-257 melanoma = tested on: UACC-257 melanoma
BT-549 breast = tested on: BT-549 breast
MDA-MB-435 = tested on: MDA-MB-435
HL-60(TB) leukemia = tested on: HL-60(TB) leukemia
SF-295 CNS = tested on: SF-295 CNS
HOP-92 NSCLC = tested on: HOP-92 NSCLC
HOP-62 NSCLC = tested on: HOP-62 NSCLC
EKVX NSCLC = tested on: EKVX NSCLC
NCI-H23 lung = tested on: NCI-H23 lung
OVCAR-5 ovarian = tested on: OVCAR-5 ovarian
M14 melanoma = tested on: M14 melanoma
SNB-78 CNS = tested on: SNB-78 CNS
IGROV1 ovarian = tested on: IGROV1 ovarian
SNB-19 CNS = tested on: SNB-19 CNS
SN12C renal = tested on: SN12C renal
OVCAR-3 ovarian = tested on: OVCAR-3 ovarian
786-0 renal = tested on: 786-0 renal
HCT-116 colon = tested on: HCT-116 colon
COLO 205 colon = tested on: COLO 205 colon
SF-539 CNS = tested on: SF-539 CNS
T-47D breast = tested on: T-47D breast
CAKI-1 renal = tested on: CAKI-1 renal
NCI-H226 lung = tested on: NCI-H226 lung
OVCAR-4 ovarian = tested on: OVCAR-4 ovarian
NCI-H460 lung = tested on: NCI-H460 lung
NCI-H522 lung = tested on: NCI-H522 lung
UACC-62 melanoma = tested on: UACC-62 melanoma
UO-31 renal = tested on: UO-31 renal
PC-3 prostate = tested on: PC-3 prostate
MDA-N = tested on: MDA-N
K-562 leukemia = tested on: K-562 leukemia
SNB-75 CNS = tested on: SNB-75 CNS
U251 CNS = tested on: U251 CNS
SW-620 colon = tested on: SW-620 colon
HCT-15 colon = tested on: HCT-15 colon
XF 498 CNS = tested on: XF 498 CNS
MALME-3M melanoma = tested on: MALME-3M melanoma
SF-268 CNS = tested on: SF-268 CNS
A549 NSCLC = tested on: A549 NSCLC
KM12 colon = tested on: KM12 colon
SK-MEL-5 melanoma = tested on: SK-MEL-5 melanoma
CCRF-CEM leukemia = tested on: CCRF-CEM leukemia
MDA-MB-231 breast = tested on: MDA-MB-231 breast
NCI/ADR-RES ovarian = tested on: NCI/ADR-RES ovarian
DLD-1 colon = tested on: DLD-1 colon
RXF-631 renal = tested on: RXF-631 renal
MCF7 breast = tested on: MCF7 breast
ACHN renal = tested on: ACHN renal
HOP-18 NSCLC = tested on: HOP-18 NSCLC
TK-10 renal = tested on: TK-10 renal
MOLT-4 leukemia = tested on: MOLT-4 leukemia
HT29 colon = tested on: HT29 colon
M19-MEL melanoma = tested on: M19-MEL melanoma
RXF 393 renal = tested on: RXF 393 renal
SK-MEL-2 melanoma = tested on: SK-MEL-2 melanoma
LOX IMVI melanoma = tested on: LOX IMVI melanoma
DMS 273 small cell lung = tested on: DMS 273 small cell lung
SN12K1 renal = tested on: SN12K1 renal
P388/ADR leukemia = tested on: P388/ADR leukemia
P388 leukemia = tested on: P388 leukemia

Oc1cc(-n2cccn2)c(O)cc1-n1cccn1
TGI (DU-145 prostate): > 69.5 µM
TGI (SK-OV-3 ovarian): > 100 µM
TGI (A498 renal): > 92.2 µM
TGI (DMS 114 small cell lung): > 67.6 µM
TGI (RPMI-8226 leukemia): 72.1 µM
TGI (SK-MEL-28 melanoma): 64.9 µM
TGI (SR leukemia): 73.3 µM
TGI (LXFL 529 NSCLC): 34.7 µM
TGI (HCC-2998 colon): > 100 µM
TGI (OVCAR-8 ovarian): 51.9 µM
TGI (HS 578T breast): > 100 µM
TGI (KM20L2 colon): > 100 µM
TGI (UACC-257 melanoma): 69.3 µM
TGI (BT-549 breast): 35.7 µM
TGI (MDA-MB-435): 31.8 µM
TGI (HL-60(TB) leukemia): 15.6 µM
TGI (SF-295 CNS): 60.2 µM
TGI (HOP-92 NSCLC): 39.8 µM
TGI (HOP-62 NSCLC): > 76.1 µM
TGI (EKVX NSCLC): > 83.3 µM
TGI (NCI-H23 lung): 68.4 µM
TGI (OVCAR-5 ovarian): 83.3 µM
TGI (M14 melanoma): 60.4 µM
TGI (SNB-78 CNS): > 68.7 µM
TGI (IGROV1 ovarian): > 75.9 µM
TGI (SNB-19 CNS): > 82.3 µM
TGI (SN12C renal): 37.8 µM
TGI (OVCAR-3 ovarian): 40 µM
TGI (786-0 renal): 31.3 µM
TGI (HCT-116 colon): > 64.1 µM
TGI (COLO 205 colon): 37.9 µM
TGI (SF-539 CNS): > 78.6 µM
TGI (T-47D breast): 56.3 µM
TGI (CAKI-1 renal): 53.8 µM
TGI (NCI-H226 lung): > 89 µM
TGI (OVCAR-4 ovarian): 36.9 µM
TGI (NCI-H460 lung): > 100 µM
TGI (NCI-H522 lung): 26.8 µM
TGI (UACC-62 melanoma): 71.3 µM
TGI (UO-31 renal): 54.2 µM
TGI (PC-3 prostate): 44.8 µM
TGI (MDA-N): 33.5 µM
TGI (K-562 leukemia): 39.3 µM
TGI (SNB-75 CNS): > 97.3 µM
TGI (U251 CNS): > 78.2 µM
TGI (SW-620 colon): 42.9 µM
TGI (HCT-15 colon): 51.6 µM
TGI (XF 498 CNS): 32.7 µM
TGI (MALME-3M melanoma): > 78.1 µM
TGI (SF-268 CNS): > 82.5 µM
TGI (A549 NSCLC): > 100 µM
TGI (KM12 colon): > 86.5 µM
TGI (SK-MEL-5 melanoma): 58 µM
TGI (CCRF-CEM leukemia): 19.6 µM
TGI (MDA-MB-231 breast): 50.5 µM
TGI (NCI/ADR-RES ovarian): > 100 µM
TGI (DLD-1 colon): > 94.8 µM
TGI (RXF-631 renal): > 100 µM
TGI (MCF7 breast): 55.1 µM
TGI (ACHN renal): 37.4 µM
TGI (HOP-18 NSCLC): > 100 µM
TGI (TK-10 renal): 49.6 µM
TGI (MOLT-4 leukemia): 61.8 µM
TGI (HT29 colon): 56.2 µM
TGI (M19-MEL melanoma): 51.1 µM
TGI (RXF 393 renal): 37.8 µM
TGI (SK-MEL-2 melanoma): > 100 µM
TGI (LOX IMVI melanoma): 42.4 µM
TGI (DMS 273 small cell lung): > 58.2 µM

COc1ccc(CC2C(=O)NC(C)C(=O)N(C)C3C(=O)N(C)C(Cc4ccc(O)c(c4)Oc4ccc(cc4)C3O)C(=O)NC(C)C(=O)NC(C)C(=O)N2C)cc1 (configuration not stated)
GI50 (DMS 114 small cell lung): 0.0128 µM
TGI (DMS 114 small cell lung): 0.0206 µM and 0.0428 µM
TGI (KM20L2 colon): 0.35 µM and 0.471 µM
GI50 (UACC-257 melanoma): 0.016 µM
TGI (UACC-257 melanoma): 0.0663 µM and 0.032 µM
TGI (BT-549 breast): 0.01 µM
GI50 (HOP-92 NSCLC): 0.00303 µM
TGI (HOP-92 NSCLC): 0.0283 µM and 0.0918 µM and 0.0269 µM
GI50 (NCI-H23 lung): 0.00711 µM
TGI (NCI-H23 lung): 0.0557 µM and 0.0341 µM
GI50 (SNB-78 CNS): 0.0125 µM
TGI (SNB-78 CNS): 0.0411 µM and 0.0264 µM
GI50 (SN12K1 renal): 0.0135 µM
TGI (SN12K1 renal): 0.0321 µM and 0.0342 µM
TGI (P388/ADR leukemia): 8.52 µM and 12.7 µM
GI50 (NCI-H226 lung): 0.0125 µM
TGI (NCI-H226 lung): 0.0238 µM and 0.0257 µM
GI50 (XF 498 CNS): 0.00238 µM
TGI (XF 498 CNS): 0.0179 µM and 0.0313 µM
GI50 (DLD-1 colon): 0.0409 µM
TGI (DLD-1 colon): 3.45 µM and 0.581 µM
GI50 (HOP-18 NSCLC): 0.0184 µM
TGI (HOP-18 NSCLC): 0.0435 µM and 0.0401 µM
GI50 (M19-MEL melanoma): 0.00708 µM
TGI (M19-MEL melanoma): 0.13 µM and 0.0543 µM
GI50 (DMS 273 small cell lung): 0.0215 µM
TGI (DMS 273 small cell lung): 0.117 µM and 0.0522 µM
GI50 (P388 leukemia): 0.0149 µM
TGI (P388 leukemia): 0.0792 µM and 0.175 µM

O=C(O)CCNS(=O)(=O)c1ccc([N+](=O)[O-])cc1
TGI (SK-OV-3 ovarian): > 100 µM
TGI (A498 renal): > 100 µM
TGI (RPMI-8226 leukemia): > 100 µM
TGI (SK-MEL-28 melanoma): > 100 µM
TGI (LXFL 529 NSCLC): > 100 µM
TGI (HCC-2998 colon): > 100 µM
TGI (OVCAR-8 ovarian): > 100 µM
TGI (KM20L2 colon): > 100 µM
TGI (UACC-257 melanoma): > 100 µM
TGI (HL-60(TB) leukemia): > 100 µM
TGI (SF-295 CNS): > 100 µM
TGI (HOP-92 NSCLC): > 100 µM
TGI (EKVX NSCLC): > 100 µM
TGI (NCI-H23 lung): > 100 µM
TGI (OVCAR-5 ovarian): > 100 µM
TGI (M14 melanoma): > 100 µM
TGI (IGROV1 ovarian): > 100 µM
TGI (SNB-19 CNS): > 100 µM
TGI (SN12C renal): > 100 µM
TGI (OVCAR-3 ovarian): > 100 µM
TGI (786-0 renal): > 100 µM
TGI (COLO 205 colon): > 100 µM
TGI (SF-539 CNS): > 100 µM
TGI (CAKI-1 renal): > 100 µM
TGI (NCI-H226 lung): > 100 µM
TGI (OVCAR-4 ovarian): > 100 µM
TGI (NCI-H460 lung): > 100 µM
TGI (NCI-H522 lung): > 100 µM
TGI (UACC-62 melanoma): > 100 µM
TGI (UO-31 renal): > 100 µM
TGI (K-562 leukemia): > 100 µM
TGI (SNB-75 CNS): > 100 µM
TGI (U251 CNS): > 100 µM
TGI (SW-620 colon): > 100 µM
TGI (HCT-15 colon): > 100 µM
TGI (XF 498 CNS): > 100 µM
TGI (MALME-3M melanoma): > 100 µM
TGI (SF-268 CNS): > 100 µM
TGI (A549 NSCLC): > 100 µM
TGI (KM12 colon): > 100 µM
TGI (SK-MEL-5 melanoma): > 100 µM
TGI (CCRF-CEM leukemia): > 100 µM
TGI (DLD-1 colon): > 100 µM
TGI (RXF-631 renal): > 100 µM
TGI (ACHN renal): > 100 µM
TGI (HOP-18 NSCLC): > 100 µM
TGI (TK-10 renal): > 100 µM
TGI (MOLT-4 leukemia): > 100 µM
TGI (HT29 colon): > 100 µM
TGI (M19-MEL melanoma): > 100 µM
TGI (RXF 393 renal): > 100 µM
TGI (SK-MEL-2 melanoma): > 100 µM
TGI (LOX IMVI melanoma): > 100 µM
TGI (DMS 273 small cell lung): > 100 µM
